These results are taken from patent publication US20240158446A1, “CYCLIC COMPOUND HAVING SELECTIVE INHIBITORY ACTION ON KRAS OVER HRAS AND NRAS” (CHUGAI SEIYAKU KABUSHIKI KAISHA, priority 2021, published 2024).

Where two headings read alike, the source gives them in different places. Where a SMILES comes first, the peptide text is derived from it. Bridges are numbered along the chain shown (N, C = ends). [ ]: non-standard residue; d: D form. The star is where a group is joined. hPhe(3,5-F2-4-CF3) = N[C@@H](CCc1cc(F)c(C(F)(F)F)c(F)c1)C(=O)O; hPhe(3-Cl-4-CF3) = N[C@@H](CCc1ccc(C(F)(F)F)c(Cl)c1)C(=O)O; NPrPhe(4-CF3) = CCCN[C@@H](Cc1ccc(C(F)(F)F)cc1)C(=O)O; NMePhe(4-Me) = CN[C@@H](Cc1ccc(C)cc1)C(=O)O; Abu(4,4,4-F3) = N[C@@H](CC(F)(F)F)C(=O)O; Pip(4,4-F2) = O=C(O)[C@@H]1CC(F)(F)CCN1; NMeGly(cPent) = CN[C@H](C(=O)O)C1CCCC1; Hyp = O=C(O)[C@@H]1C[C@@H](O)CN1; NMeD = CN[C@@H](CC(=O)O)C(=O)O; NMeL = CN[C@@H](CC(C)C)C(=O)O; αMeL = CC(C)C[C@](C)(N)C(=O)O; Pip = O=C(O)[C@@H]1CCCCN1; Morpholide = C1CN(*)CCO1; NMeA = CN[C@@H](C)C(=O)O; Ac5c = NC1(C(=O)O)CCCC1; Aze = O=C(O)[C@@H]1CCN1; Ac4c = NC1(C(=O)O)CCC1; NEtG = CCNCC(=O)O; Sar = CNCC(=O)O

Test [1] concerns the target GDP-bound KRAS wild-type protein (Homo sapiens, UniProt P01116). Kind of test: Binding to KRAS by surface plasmon resonance (SPR), Single Cycle Kinetics. The settings on record: GDP-bound KRAS wild-type protein, read-out: KRAS KD. Background: Surface plasmon resonance follows binding to a sensor surface in real time, without labels.
For test [2], the target named is GDP-bound HRAS wild-type protein (Homo sapiens, UniProt P01112). Kind of test: Binding to HRAS by surface plasmon resonance (SPR), Single Cycle Kinetics. The note with it: SPR, GDP-bound HRAS wild-type protein vs GDP-bound KRAS wild-type protein.
Sequence of GDP-bound HRAS wild-type protein (P01112 whole entry): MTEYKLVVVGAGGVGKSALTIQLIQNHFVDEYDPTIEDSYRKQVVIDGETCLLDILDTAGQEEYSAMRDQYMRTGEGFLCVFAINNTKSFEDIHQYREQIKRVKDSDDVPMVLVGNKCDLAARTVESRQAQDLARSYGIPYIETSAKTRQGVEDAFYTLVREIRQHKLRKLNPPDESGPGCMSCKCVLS
The target in test [3] is GDP-bound NRAS wild-type protein (Homo sapiens, UniProt P01111). The experiment in a line: Binding to NRAS by surface plasmon resonance (SPR), Single Cycle Kinetics. The settings on record: SPR, GDP-bound NRAS wild-type protein vs GDP-bound KRAS wild-type protein.
Sequence of GDP-bound NRAS wild-type protein (P01111 whole entry): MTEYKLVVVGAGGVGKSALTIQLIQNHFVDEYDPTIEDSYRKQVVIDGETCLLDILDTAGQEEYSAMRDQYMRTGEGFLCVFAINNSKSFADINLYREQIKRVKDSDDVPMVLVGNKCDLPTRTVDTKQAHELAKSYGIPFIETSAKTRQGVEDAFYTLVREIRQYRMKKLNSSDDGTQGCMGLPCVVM
Where [4] appears, read: SPR Single Cycle Kinetics, 1:1 binding model.

Sequence of GDP-bound KRAS wild-type protein (P01116 whole entry): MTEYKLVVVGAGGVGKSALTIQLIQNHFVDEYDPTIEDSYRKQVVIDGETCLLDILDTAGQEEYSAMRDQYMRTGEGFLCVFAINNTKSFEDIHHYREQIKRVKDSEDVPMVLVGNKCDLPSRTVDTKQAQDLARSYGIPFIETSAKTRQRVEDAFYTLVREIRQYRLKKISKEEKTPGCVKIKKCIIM

By Kd is commonly meant the concentration at which binding is half-saturated. On to `CC[C@H](C)[C@@H]1NC(=O)[C@H](COC)N(C)C(=O)C[C@@H](C(=O)N2CCOCC2)N(C)C(=O)[C@H](C2CCCC2)N(C)C(=O)C2(CCCC2)NC(=O)[C@@H]2CCCN2C(=O)[C@H](CCc2ccc(C(F)(F)F)c(Cl)c2)NC(=O)CN(C)C(=O)[C@H](Cc2ccc(F)cc2)N2CCCCC[C@@H](C2=O)N(C)C(=O)CN(C)C1=O` [PP0960], for which the Kd in test [1] (SPR, Single Cycle Kinetics) came out at 0.37 nM. Besides, in test [2], the “HRAS/KRAS (ratio of KD value for HRAS to KD value for KRAS)” value is “B (a compound having 3 or more and less than 10 is denoted as B)”. In test [3], the “NRAS/KRAS (ratio of KD value for NRAS to KD value for KRAS)” value was “B (a compound having 3 or more and less than 10 is denoted as B)”.

Take `CCCN1C(=O)[C@@H]2CCN2C(=O)[C@H](C)N(C)C(=O)[C@H]([C@@H](C)CC)NC(=O)[C@H](CC(C)C)N(C)C(=O)C[C@@H](C(=O)N2CCOCC2)NC(=O)[C@H](C2CCCC2)N(C)C(=O)C2(CCC2)NC(=O)[C@@H]2CCCN2C(=O)[C@H](CCc2ccc(C(F)(F)F)c(Cl)c2)NC(=O)CN(C)C(=O)[C@@H]1Cc1ccc(C(F)(F)F)cc1` [PP0344] ([NMeL]I[NMeA][Aze][NPrPhe(4-CF3)][Sar][hPhe(3-Cl-4-CF3)]P[Ac4c][NMeGly(cPent)]D-Morpholide; lactam N-11): in test [1] (setting [4]), the Kd was 1.1 nM. In addition, in test [2], the “HRAS/KRAS (ratio of KD value for HRAS to KD value for KRAS)” value was “B (a compound having 3 or more and less than 10 is denoted as B)”. Further, in test [3], the “NRAS/KRAS (ratio of KD value for NRAS to KD value for KRAS)” value is “C (A compound having a KD ratio of 0.1 or more and less than 3 is denoted as C)”.

In the case of `CCCN1C(=O)[C@@H]2CCN2C(=O)CN(C)C(=O)[C@H]([C@@H](C)CC)NC(=O)[C@H](CC(C)C)N(C)C(=O)C[C@@H](C(=O)N2CCOCC2)N(C)C(=O)[C@H](C2CCCC2)N(C)C(=O)C2(CCCC2)NC(=O)[C@@H]2C[C@@H](OCC)CN2C(=O)[C@H](CCc2ccc(C(F)(F)F)c(Cl)c2)NC(=O)CN(C)C(=O)[C@@H]1Cc1ccc(C(F)(F)F)cc1` [PP0410] ([NMeL]I[Sar][Aze][NPrPhe(4-CF3)][Sar][hPhe(3-Cl-4-CF3)][Hyp](Et)[Ac5c][NMeGly(cPent)][NMeD]-Morpholide; lactam N-11), in test [1] (setting [4]), the Kd was 0.058 nM. Also, the “HRAS/KRAS (ratio of KD value with respect to HRAS to KD value with respect to KRAS)” value in test [2] is “B (a compound having 3 or more and less than 10 is denoted as B)”. Also, the “NRAS/KRAS (ratio of KD value with respect to NRAS to KD value with respect to KRAS)” value in test [3] was “C (A compound having a KD ratio of 0.1 or more and less than 3 is denoted as C)”.

For `CCCN1C(=O)CN(C)C(=O)CN(C)C(=O)[C@H]([C@@H](C)CC)NC(=O)[C@H](CC(C)C)N(C)C(=O)C[C@@H](C(=O)N(C)C)N(C)C(=O)[C@H](C2CCCC2)N(C)C(=O)[C@](C)(CC(C)C)NC(=O)[C@@H]2CCCN2C(=O)[C@H](CCc2cc(F)c(C(F)(F)F)c(F)c2)NC(=O)CN(C)C(=O)[C@@H]1Cc1ccc(C(F)(F)F)cc1` [PP0738] ([NMeL]I[Sar][Sar][NPrPhe(4-CF3)][Sar][hPhe(3,5-F2-4-CF3)]P[αMeL][NMeGly(cPent)][NMeD]-NMe2; lactam N-11), the Kd in test [1] (setting [4]) worked out at 0.64 nM. Besides, the “HRAS/KRAS (ratio of KD value with respect to HRAS to KD value with respect to KRAS)” value in test [2] was “B (a compound having 3 or more and less than 10 is denoted as B)”. Further, the “NRAS/KRAS (ratio of KD value with respect to NRAS to KD value with respect to KRAS)” value in test [3] was “B (a compound having 3 or more and less than 10 is denoted as B)”.

For the molecule `CCO[C@@H]1C[C@H]2C(=O)NC3(CC(C)(C)C3)C(=O)N(C)[C@@H](C(CC)CC)C(=O)N(C)[C@H](C(=O)N(C)C)CC(=O)N(C)[C@@H](CC3CCC3)C(=O)N[C@@H]([C@@H](C)CC)C(=O)N(C)CC(=O)N(C)[C@H]3C/C=C\CCN(C3=O)[C@@H](Cc3ccc(C)cc3)C(=O)N(C)CC(=O)N[C@@H](CCc3cc(F)c(C(F)(F)F)c(F)c3)C(=O)N2C1` [PP2151], the Kd in test [1] (SPR, Single Cycle Kinetics) is 0.29 nM. Moreover, in test [2], the “HRAS/KRAS (ratio of KD value for HRAS to KD value for KRAS)” value was “A (a compound having 10 or more and less than 20 is denoted as A)”. Moreover, in test [3], the “NRAS/KRAS (ratio of KD value for NRAS to KD value for KRAS)” value was “A (a compound having 10 or more and less than 20 is denoted as A)”.

For the molecule `CCCN1C(=O)CN(C)C(=O)CN(C)C(=O)[C@H]([C@@H](C)CC)NC(=O)[C@H](CC(C)C)N(C)C(=O)C[C@@H](C(=O)N2CCOCC2)N(C)C(=O)[C@H](C2CCCC2)N(C)C(=O)C2(CCCC2)NC(=O)[C@@H]2CC(F)(F)CCN2C(=O)[C@H](CCc2ccc(C(F)(F)F)c(Cl)c2)NC(=O)CN(C)C(=O)[C@@H]1Cc1ccc(C(F)(F)F)cc1` [PP0264] ([NMeL]I[Sar][Sar][NPrPhe(4-CF3)][Sar][hPhe(3-Cl-4-CF3)][Pip(4,4-F2)][Ac5c][NMeGly(cPent)][NMeD]-Morpholide; lactam N-11), in test [1] (setting [4]), the Kd came out at 0.42 nM. Further, in test [2], the “HRAS/KRAS (ratio of KD value for HRAS to KD value for KRAS)” value was “C (A compound having a KD ratio of 0.1 or more and less than 3 is denoted as C)”. Moreover, the “NRAS/KRAS (ratio of KD value for NRAS to KD value for KRAS)” value in test [3] is “B (a compound having 3 or more and less than 10 is denoted as B)”.

As for `CCCN1C(=O)[C@@H]2CCN2C(=O)[C@H](C)N(C)C(=O)[C@H](CC(F)(F)F)NC(=O)[C@H](CC(C)C)N(C)C(=O)C[C@@H](C(=O)N2CCOCC2)N(C)C(=O)[C@H](C2CCCC2)N(C)C(=O)C2(CCCC2)NC(=O)[C@@H]2CCCN2C(=O)[C@H](CCc2ccc(C(F)(F)F)c(Cl)c2)NC(=O)CN(C)C(=O)[C@@H]1Cc1ccc(C(F)(F)F)cc1` [PP0270] ([NMeL][Abu(4,4,4-F3)][NMeA][Aze][NPrPhe(4-CF3)][Sar][hPhe(3-Cl-4-CF3)]P[Ac5c][NMeGly(cPent)][NMeD]-Morpholide; lactam N-11), the Kd in test [1] (setting [4]) amounted to 0.76 nM. Moreover, the “HRAS/KRAS (ratio of KD value for HRAS to KD value for KRAS)” value in test [2] is “B (a compound having 3 or more and less than 10 is denoted as B)”. Besides, the “NRAS/KRAS (ratio of KD value for NRAS to KD value for KRAS)” value in test [3] is “C (A compound having a KD ratio of 0.1 or more and less than 3 is denoted as C)”.

In the case of `CCCN1C(=O)[C@@H]2CCN2C(=O)[C@H](C)N(C)C(=O)[C@H]([C@@H](C)CC)NC(=O)[C@H](CC(C)C)N(C)C(=O)C[C@@H](C(=O)N2CCOCC2)N(C)C(=O)[C@H](C2CCCC2)N(C)C(=O)C2(CCCC2)NC(=O)[C@@H]2CCCCN2C(=O)[C@H](CCc2ccc(C(F)(F)F)c(Cl)c2)NC(=O)CN(C)C(=O)[C@@H]1Cc1ccc(C(F)(F)F)cc1` [PP0284] ([NMeL]I[NMeA][Aze][NPrPhe(4-CF3)][Sar][hPhe(3-Cl-4-CF3)][Pip][Ac5c][NMeGly(cPent)][NMeD]-Morpholide; lactam N-11), the Kd in test [1] (setting [4]) was 0.67 nM. In addition, the “HRAS/KRAS (ratio of KD value for HRAS to KD value for KRAS)” value in test [2] was “B (a compound having 3 or more and less than 10 is denoted as B)”. Besides, in test [3], the “NRAS/KRAS (ratio of KD value for NRAS to KD value for KRAS)” value was “C (A compound having a KD ratio of 0.1 or more and less than 3 is denoted as C)”.

As for `CC[C@H](C)[C@@H]1NC(=O)[C@H](CC(C)C)N(C)C(=O)C[C@@H](C(=O)N2CCOCC2)N(C)C(=O)[C@H](C2CCCC2)N(C)C(=O)C2(CCCC2)NC(=O)[C@@H]2CCCN2C(=O)[C@H](CCc2ccc(C(F)(F)F)c(Cl)c2)NC(=O)CN(CC)C(=O)[C@H](Cc2ccc(C)cc2)N(C)C(=O)CN(CC)C(=O)CN(C)C1=O` [PP0029] ([NMeL]I[Sar][NEtG][NMePhe(4-Me)][NEtG][hPhe(3-Cl-4-CF3)]P[Ac5c][NMeGly(cPent)][NMeD]-Morpholide; lactam N-11), in test [1] (setting [4]), the Kd is 7 nM. The “HRAS/KRAS (ratio of KD value for HRAS to KD value for KRAS)” value in test [2] was “C (A compound having a KD ratio of 0.1 or more and less than 3 is denoted as C)”. For the same molecule, the “NRAS/KRAS (ratio of KD value for NRAS to KD value for KRAS)” value in test [3] is “C (A compound having a KD ratio of 0.1 or more and less than 3 is denoted as C)”.
